Where two headings read alike, the source gives them in different places.
Experiments:
[1] = test system: circumflex branch of the left coronary artery; test: Comparative Example 1: blood flow after administration of compound A reduced with ascorbic acid; format: in vivo, mongrel dogs
Procedure: The operation of Example 4 was conducted by administering the compound A wherefrom the N-oxyl radical was inactivated only after reducing with ascorbic acid. […] It is therefore apparent that the pharmacological action was due to the radical in the molecule and that the compounds of the present invention are the pharmaceuticals of a new type.

[2] = Behavior of compound A in blood flow: blood and urine samples determined by electronic spin resonance after the administration; details: for clearance (in words) / excretion from the kidney: dog, in vivo
Procedure: Thus, within a certain period after the administration, samples of blood and urine were collected and "a concentration of the compound A which was unchanged and retained" and "a total concentration after oxidization with potassium ferricyanide" were determined by means of an electronic spin resonance (RF80; Nippon Denshi).

[3] = test system: circumflex branch of the left coronary artery; test: Test on the relaxation of coronary arteries: coronary blood flow and blood flow status (haemodynamics) in anesthetized open-chest dogs, intracoronary administration; format: in vivo, mongrel adult dogs; details: for Blood Flow at Rotation Branch: 4 min
Procedure: Twenty mongrel adult dogs were anesthetized with 30 mg/kg pentobarbital, their breasts were opened under an artificial respiration and heparin (3,000 IU/kg; each 1,000 IU/mg administered intravenously every 30 minutes thereafe) and aspirin (17 mg/kg) were administered. Then a cannula was inserted near the circumflex branch of the left coronary artery and a perfusion was conducted by means of a bypath from the whole left carotid artery. Coronary blood flow was measured, by an electromagnetic blood flowmeter (MFV-3200 manufactured by Nippon Koden) via a probe for measuring the blood flow (manufactured by Nippon Koden) located at the center of the bypath while the artery pressure and the left cardiac pressure were measured at an underarm artery and by means of a catheter inserted from the apex, respectively.

[4] = test system: circumflex branch of the left coronary artery; test: Effect of various pharmaceuticals on coronary blood flow increase by administration of compound A; format: in vivo, mongrel adult dogs; details: 1.0 mM in artery
Procedure: The compound A was administered for four minutes, by the same manner as in Example 6, to a control group, to a group (LNAME-treated group) which was pretreated with a methyl ester of NG-nitro-L-arginine which was an inhibitor for the production of nitrogen monoxide caused by endothelium (by administering to the coronary artery at the dose of 200 μM for six minutes), to a group (8PT-treated group) which was pretreated with 8-phenyltheophylline which was an adenosnine antagonist (by administering to the coronary artery at the dose of 30 ng/kg/minute) an a group (autonomic nerve blocking group) which was pretreated with a pharmacological autonomic blocking agent (by an intravenous administration of 0.1 mg/kg of atropine, 1 mg/kg of propranolol and 2 mg/kg of phentolamine) to make the concentration of the compound A in the coronary artery 1.0 mM whereby the results were compared.

[5] = test system: ring samples of the circumflex branch (coronary artery); test: In vitro test: relaxation of ring samples of the circumflex branch precontracted by prostaglandin F2α (isometric tension); parameters: species or system mongrel adult dogs; details: for EC50: Canis lupus familiaris, read-out: ED50 value expressed in terms of a minus logarithm of the administered concentration, endothelium absent (converted)
Procedure: After an anesthetization of the mongrel adult dogs, the extracted ring samples (outer diameter: about 2 mm) of the circumflex branch were prepared, hung in a chamber filled with 3 ml of a Krebs buffer which was oxidated (with 95% oxygen and 5% […]), balanced with an initial tension of 2 g and subjected to a precontraction by prostaglandin F2α (concentration in the chamber: 2 μM).
To this was added the compound A on an accumulated manner whereby its concentration in the chamber became from 1 μM to 1 mM and the resulting changes in the isometric tension were measured using a tranducer (manufactured by Minebea) and recorded in a pen recorder (SR6211 manufactured by Graphtec). Incidentally, the changes in the tension were evaluated on a basis that the precontraction by prostaglandin F2α was 100%. In some of the samples, the endothelium was exfoliated (confirmed by a disappearance of the relaxation to 1 μM of acetylcholine) and, furthermore, they were subjected to a pretreatment with Methylene Blue, an inhibitor for a soluble guanylate cyclase, (concentration in the chamber: 10 μM; administered 30 minutes before) whereby the effect was investigated.
Therefore, it is supposed that the compounds of the present invention activated the guanylate cyclase on a continued basis whereby the blood vessel was continuously relaxed.

For CC1(C)N=C(c2ccc(C(=O)O)cc2)N(O)C1(C)C, the “blood flow after the administration” value ([1]; 1.0 mM (FIG. 3), before the administration 22.4 ml/minute) was 22.8 mL/min, the “pharmacological action (in words)” value ([1]; after reducing with ascorbic acid) was “completely disappeared” and the “change in the blood flow (in words)” value ([1]; before vs after the administration, FIG. 3) was “no changes in the blood flow”. The “clearance (in words)” value [2] was “very prompt” and the “excretion from the kidney” value [2] was “rapidly excreted from the kidney”.
In the case of CC1(C)N=C(c2ccc(C(=O)O)cc2)N([O])C1(C)C [Compound A], the “Av. Blood Pressure” value ([3]; 0.1 mM in artery) is reported as 130 ± 8 mmHg, the “Left Cardiac dp/dt” value ([3]; 0.1 mM in artery) is reported as 1132 ± 60 mmHg/sec and the “Pres. at Final Stage of Left Cardiac Dilation” value (“Pres. at Final Stage” for short) ([3]; 0.1 mM in artery) is reported as 11 ± 2 mmHg. The “Pulse Numbers” value ([3]; 0.1 mM in artery) was 155 ± 8 min⁻¹, the “Blood Flow at Rotation Branch” value ([3]; 0.1 mM in artery) was 29.8 ± 3.6 mL/min and the “Av. Blood Pressure” value ([3]; 0.3 mM in artery) was 133 ± 8 mmHg. The “Left Cardiac dp/dt” value ([3]; 0.3 mM in artery) was 1210 ± 63 mmHg/sec, the “Pres. at Final Stage” value ([3]; 0.3 mM in artery) was 10 ± 2 mmHg and the “Pulse Numbers” value ([3]; 0.3 mM in artery) was 154 ± 8 min⁻¹. For the same compound, the “Blood Flow at Rotation Branch” value ([3]; 0.3 mM in artery, p < 0.05 to the control) was 41.5 ± 5.7 mL/min, the “duration of effect on coronary blood flow after completion of the administration” value ([3]; 1 mM for four minutes) was no less than 30 min and the “increase in coronary blood flow (fold)” value ([3]; 1 mM for four minutes) was “about three”. For the same compound, the “increasing rate of coronary blood flow” value ([3]; 1 mM for four minutes) was “ca. 200%”, the “Av. Blood Pressure” value ([3]; 1.0 mM in artery) was 132 ± 7 mmHg and the “Left Cardiac dp/dt” value ([3]; 1.0 mM in artery) was 1241 ± 50 mmHg/sec. The “Pres. at Final Stage” value ([3]; 1.0 mM in artery) was 10 ± 2 mmHg, the “Pulse Numbers” value ([3]; 1.0 mM in artery) was 157 ± 8 min⁻¹ and the “Blood Flow at Rotation Branch” value ([3]; 1.0 mM in artery, p < 0.01 to the control, 0.1 mM and 0.3 mM) was 89.7 ± 10.6 mL/min. The “blood pressure (in words)” value ([3]; 0.1, 0.3 and 1.0 mM in artery) was “no change”, the “contracting power of the heart (in words)” value ([3]; 0.1, 0.3 and 1.0 mM in artery) was “rather improved” and the “left cardiac dp/dt (in words)” value ([3]; 0.1, 0.3 and 1.0 mM in artery) was “increasing tendency”. The “pressure at the final stage of the left cardiac dilation (in words)” value ([3]; 0.1, 0.3 and 1.0 mM in artery) was “no change”, the “pulse numbers (in words)” value ([3]; 0.1, 0.3 and 1.0 mM in artery) was “no change” and the “coronary blood flow (in words)” value ([3]; 0.1, 0.3 and 1.0 mM in artery, FIG. 2) was “significant increase in the coronary blood flow”. The “side effect (in words)” value ([3]; intracoronary administration) was “no side effect was noted”, the “% Increase of blood flow in rotary branch” value (shortened to “% Increase of blood flow”) ([4]; 8PT-treated group) was 120 ± 10% and the “Blood Flow in Rotary Branch, after administration of Compd A” value (from here on “Blood Flow in Rotary Branch … of Compd A”) ([4]; 8PT-treated group, before 23.1 ± 2.7) was 51.6 ± 5.8 mL/min. For the same compound, the “influence of pretreatments on the action of the compound A (in words)” value ([4]; LNAME, 8-phenyltheophylline, autonomic blockade) was “none of the pharmaceuticals affected on the action of the compound A”, the “% Increase of blood flow” value ([4]; LNAME-treated group) was 155 ± 28% and the “Blood Flow in Rotary Branch … of Compd A” value ([4]; LNAME-treated group, before 26.1 ± 2.7) was 67.0 ± 11.5 mL/min. For the same compound, the “% Increase of blood flow” value ([4]; autonomic nerve blocked group) was 137 ± 56%, the “Blood Flow in Rotary Branch … of Compd A” value ([4]; autonomic nerve blocked group, before 19.5 ± 3.3) was 49.3 ± 18.5 mL/min and the “% Increase of blood flow” value ([4]; control group) was 164 ± 31%. The “Blood Flow in Rotary Branch … of Compd A” value ([4]; control group, before 32.0 ± 2.1) was 84.9 ± 13.7 mL/min, the “influence of the endothelium on coronary artery relaxation (in words)” value ([5]; 1 μM to 1 mM, with vs without endothelium, FIG. 4) was “stronger than that in the absence of the endothelium” and the EC50 ([5]; no Methylene Blue) was 10 µM. For the same compound, the EC50 ([5]; with Methylene Blue 10 μM, 30 minutes before, p<0.01) was 79.4 µM, the “reduction in blood (stability of N-oxyl radical)” value ([2]; by ascorbic acid, etc. in blood) was “quickly reduced by ascorbic acid, etc. in blood” and the “clearance (in words)” value [2] was “very prompt”. The “excretion from the kidney” value [2] was “rapidly excreted from the kidney” and the “total amount of compound A remaining in the blood” value ([2]; one minute after the administration) was “about 0.3%”.
For CN(C)c1ccc2nc3ccc(=[N+](C)C)cc-3sc2c1 [Methylene Blue, reference compound], the “inhibition of the coronary artery relaxing action of compound A (in words)” value ([5]; endothelium absent, 10 μM, 30 minutes before) was “found to inhibit that”.
